This note sets out measurements from patent US20240391936A1, “TETRAHYDROTHIENO PYRIDINE DERIVATIVES AS DDRS INHIBITORS” (CHIESI FARMACEUTICI S.P.A., priority 2021, published 2024).

The IC50 is the concentration at which inhibition is half-maximal. For orientation: Ki means a dissociation constant, usually derived from enzyme kinetics or from competition with a known ligand.

Structures are written as SMILES.

Test [1] deals with T1, DDR2 (Homo sapiens, UniProt Q16832).
T1 sequence (Q16832 22-855): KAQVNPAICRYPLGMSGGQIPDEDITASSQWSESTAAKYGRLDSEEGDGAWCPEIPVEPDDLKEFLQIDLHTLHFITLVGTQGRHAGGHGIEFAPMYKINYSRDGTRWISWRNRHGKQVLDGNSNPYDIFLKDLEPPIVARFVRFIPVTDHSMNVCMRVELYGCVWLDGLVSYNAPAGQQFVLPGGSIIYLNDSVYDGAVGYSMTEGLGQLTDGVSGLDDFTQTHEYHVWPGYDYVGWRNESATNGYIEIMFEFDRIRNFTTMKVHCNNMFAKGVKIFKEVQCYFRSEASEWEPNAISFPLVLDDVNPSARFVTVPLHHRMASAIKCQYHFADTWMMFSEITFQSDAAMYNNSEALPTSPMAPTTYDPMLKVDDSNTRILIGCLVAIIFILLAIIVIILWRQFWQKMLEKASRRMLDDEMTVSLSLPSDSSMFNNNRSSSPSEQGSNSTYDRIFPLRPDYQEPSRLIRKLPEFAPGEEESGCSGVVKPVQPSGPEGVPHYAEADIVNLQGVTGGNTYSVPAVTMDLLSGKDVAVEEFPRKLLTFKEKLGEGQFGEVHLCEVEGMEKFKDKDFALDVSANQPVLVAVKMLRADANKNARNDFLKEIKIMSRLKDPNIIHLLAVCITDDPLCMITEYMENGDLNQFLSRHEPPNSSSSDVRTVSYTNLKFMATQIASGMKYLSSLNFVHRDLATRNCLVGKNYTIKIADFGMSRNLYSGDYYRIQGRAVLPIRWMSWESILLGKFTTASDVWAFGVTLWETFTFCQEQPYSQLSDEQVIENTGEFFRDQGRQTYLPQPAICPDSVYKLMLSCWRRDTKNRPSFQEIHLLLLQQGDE
Nature of the test: DDR2 cell based assay (phospho-ELISA in HEK293T-DDR2 recombinant cells). The arrangement: expressed in transfected cells; host or cells: HEK293T-DDR2 recombinant cells. Conditions: bovine Type II Collagen 50 μg/ml. The procedure: The inhibition of DDR2 phosphorylation by compounds was evaluated in HEK293T-DDR2 recombinant cells by phospho-ELISA assay. Briefly, HEK293T-DDR2 cells were seeded in poly-D-lysine-coated 24-well plates at a density of 250.000 cells/well and incubated for 1.5 hours at 37° C. and 5% CO2 in DMEM+10% FBS. After that, the medium was changed to serum-free DMEM and cells were incubated for 3 hours. Then. test compounds were added at different concentrations 30 minutes before stimulation with bovine Type II Collagen at 50 μg/ml for further 3 hours. For DDR2 phospho-ELISA assay (DuoSet IC Human Phospho-DDR2; R&D Systems), protein extracts were obtained by adding 60 μl/well of lysis buffer prepared according to the manufacturer's instructions. Protein concentration in the samples was determined by BCA assay and the levels of phospho-DDR2 were determined following R&D Systems indications. Raw data were normalized to maximal inhibition control (0% for normalization) and positive control (100% for normalization; cells treated with […] collagen II) and IC50 parameters were calculated in GraphPad Prism 8.0 software, using sigmoidal dose-response curve fitting with variable slope.
(An ELISA detects its analyte on a solid surface through an enzyme-linked reagent.)

Test [2] has as its target T1, DDR2. Kind of test: DDR2 binding assay (LanthaScreen Europium Kinase Binding assay). The arrangement: purchased Life Technologies. Conditions: binding assay, 5 nM DDR2, 10 nM Kinase Tracer 178; Ki from IC50 by Cheng-Prusoff; read-out: Ki DDR2. The method, boiled down: (§1)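 Compounds incubated 1 h at room temperature with 5 nM kinase, Kinase Tracer 178 (20 nM for DDR1, 10 nM for DDR2) and 2 nM Eu-anti-GST antibody in pH 7.5 HEPES/MgCl2/EGTA/BRIJ35 buffer. TR-FRET 665/615 nm ratio read after 340 nm excitation; IC50 from 4-parameter fit, converted to Ki by Cheng-Prusoff.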
(In general: Time-resolved FRET reads energy transfer from a long-lived donor to a nearby acceptor.)

For test [3], the target named is T2, DDR1 (Homo sapiens, UniProt Q08345). Nature of the test: DDR1 cell based assay (PathHunter U2OS DDR1 assay). The arrangement: host or cells: U2OS-DDR1 (PathHunter). Conditions: U2OS-DDR1 cells, bovine Type II Collagen 20 μg/ml. In a few lines: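 U2OS-DDR1 PathHunter cells preincubated 30 min with compound, then stimulated overnight at 37 °C with 20 μg/ml bovine type II collagen. Luminescent complementation signal read after 1 h detection at room temperature; normalized to vehicle (0%) and collagen-only (100%) controls, IC50 from variable-slope sigmoidal fit.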
T2 sequence (Q08345 19-913): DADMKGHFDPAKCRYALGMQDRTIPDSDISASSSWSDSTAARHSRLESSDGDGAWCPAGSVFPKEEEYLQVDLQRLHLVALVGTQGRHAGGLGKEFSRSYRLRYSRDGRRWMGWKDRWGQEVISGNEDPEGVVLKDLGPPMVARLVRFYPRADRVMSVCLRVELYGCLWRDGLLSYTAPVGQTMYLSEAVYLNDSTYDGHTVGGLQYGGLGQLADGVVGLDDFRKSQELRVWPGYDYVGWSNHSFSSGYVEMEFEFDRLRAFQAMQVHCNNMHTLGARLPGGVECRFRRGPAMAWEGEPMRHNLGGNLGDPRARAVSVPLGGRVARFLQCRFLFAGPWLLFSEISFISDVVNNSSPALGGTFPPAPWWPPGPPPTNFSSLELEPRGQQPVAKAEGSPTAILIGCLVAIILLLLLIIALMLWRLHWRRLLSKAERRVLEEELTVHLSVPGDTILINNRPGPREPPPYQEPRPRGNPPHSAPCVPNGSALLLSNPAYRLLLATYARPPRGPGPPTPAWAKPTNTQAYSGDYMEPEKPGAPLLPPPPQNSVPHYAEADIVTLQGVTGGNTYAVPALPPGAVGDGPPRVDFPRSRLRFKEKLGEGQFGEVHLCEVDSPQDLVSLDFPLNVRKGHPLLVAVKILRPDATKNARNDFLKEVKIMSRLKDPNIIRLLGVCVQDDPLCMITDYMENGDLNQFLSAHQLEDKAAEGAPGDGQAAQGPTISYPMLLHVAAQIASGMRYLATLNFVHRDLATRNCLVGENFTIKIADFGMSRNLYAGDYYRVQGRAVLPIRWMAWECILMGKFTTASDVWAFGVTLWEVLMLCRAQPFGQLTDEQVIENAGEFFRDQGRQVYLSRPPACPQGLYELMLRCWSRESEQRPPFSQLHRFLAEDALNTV

Test [4] addresses T2, DDR1. Nature of the test: DDR1 binding assay (LanthaScreen Europium Kinase Binding assay). Further details: purchased Carna Biosciences. Conditions: binding assay, 5 nM DDR1, 20 nM Kinase Tracer 178; Ki from IC50 by Cheng-Prusoff; read-out: Ki DDR1. In a few lines: as §1

In the case of `C[C@@H]1c2scc(C(=O)Nc3cccc(C(F)(F)F)c3)c2CCN1C(=O)c1cnc2ccccn12` [Example 100, (R)-6-(imidazo[1,2-a]pyridine-3-carbonyl)-7-methyl-N-(3-(trifluoromethyl)phenyl)-4,5,6,7-tetrahydrothieno[2,3-c]pyridine-3-carboxamide], the IC50 at DDR2 [1] and at DDR1 [3] was below 25 nM in each case. Further, the inhibition constant (Ki) on DDR2 [2] and at DDR1 [4] was below 25 nM in each case.
As to `Cc1cn(-c2cc(NC(=O)c3csc4c3CCN(C(=O)c3cnc5ccccn35)[C@@H]4C)cc(C(F)(F)F)c2)cn1` [Example 101, (R)-6-(imidazo[1,2-a]pyridine-3-carbonyl)-7-methyl-N-(3-(4-methyl-1H-imidazol-1-yl)-5-(trifluoromethyl)phenyl)-4,5,6,7-tetrahydrothieno[2,3-c]pyridine-3-carboxamide], the IC50 at DDR2 [1] and against DDR1 [3] was below 25 nM in each case. In addition, the Ki at DDR2 [2] and at DDR1 [4] was below 25 nM in each case.
Turning to `CC1(C)c2scc(C(=O)Nc3cccc(C(F)(F)F)c3)c2CCN1C(=O)c1cnc2ccccn12` [Example 102, 6-(imidazo[1,2-a]pyridine-3-carbonyl)-7,7-dimethyl-N-(3-(trifluoromethyl)phenyl)-4,5,6,7-tetrahydrothieno[2,3-c]pyridine-3-carboxamide], the values for the IC50 at DDR2 [1] and against DDR1 [3] were 25 to 50 nM and below 25 nM, respectively. The inhibition constant Ki at DDR2 [2] and at DDR1 [4] was below 25 nM throughout.
Turning to `CC1c2scc(C(=O)Nc3cccc(C(F)(F)F)c3)c2CCN1Cc1cnc2cnccn12` (centres unmarked) [Example 103, 6-(imidazo[1,2-a]pyrazin-3-ylmethyl)-7-methyl-N-(3-(trifluoromethyl)phenyl)-4,5,6,7-tetrahydrothieno[2,3-c]pyridine-3-carboxamide], the IC50 at DDR2 [1] was 25 to 50 nM; on DDR1 [3] it was below 25 nM. Moreover, the inhibition constant (Ki) on DDR2 [2] and at DDR1 [4] was below 25 nM in each case.
`O=C(Nc1cncc(C(F)(F)F)c1)c1csc2c1CCN(C(=O)c1cnn3ccncc13)C2` [Example 108, 6-(pyrazolo[1,5-a]pyrazine-3-carbonyl)-N-(5-(trifluoromethyl)pyridin-3-yl)-4,5,6,7-tetrahydrothieno[2,3-c]pyridine-3-carboxamide]: the IC50 on DDR2 [1] was 25 to 50 nM; at DDR1 [3], below 25 nM. Moreover, the Ki at DDR2 [2] and at DDR1 [4] was below 25 nM in each case.
Take `CC(C)(C)c1cc(NC(=O)c2csc3c2CCN(Cc2cnc4[nH]ncc4c2)C3)on1` [Example 133, 6-((1H-pyrazolo[3,4-b]pyridin-5-yl)methyl)-N-(3-(tert-butyl)isoxazol-5-yl)-4,5,6,7-tetrahydrothieno[2,3-c]pyridine-3-carboxamide]: the half-maximal inhibitory concentration (IC50) at DDR2 [1] and on DDR1 [3] was below 25 nM each time. Besides, the Ki at DDR2 [2] and on DDR1 [4] was below 25 nM each time.
On to `CC(C)(C)c1cc(NC(=O)c2csc3c2CCN(Cc2cnc4[nH]ncc4c2)C3)no1` [Example 134, 6-((1H-pyrazolo[3,4-b]pyridin-5-yl)methyl)-N-(5-(tert-butyl)isoxazol-3-yl)-4,5,6,7-tetrahydrothieno[2,3-c]pyridine-3-carboxamide], for which the IC50 on DDR2 [1] and against DDR1 [3] was below 25 nM in each case. Moreover, the inhibitory constant (Ki) at DDR2 [2] and on DDR1 [4] was below 25 nM in each case.
As to `CN1CCN(c2ccc3ncc(C(=O)N4CCc5c(C(=O)Nc6cccc(C(F)(F)F)c6)csc5C4)n3c2)CC1` [Example 136, 6-(6-(4-methylpiperazin-1-yl)imidazo[1,2-a]pyridine-3-carbonyl)-N-(3-(trifluoromethyl)phenyl)-4,5,6,7-tetrahydrothieno[2,3-c]pyridine-3-carboxamide], the IC50 on DDR2 [1] and against DDR1 [3] was below 25 nM in each case. Further, the Ki at DDR2 [2] and on DDR1 [4] was below 25 nM in each case.
For the compound `Cc1n[nH]c2ncc(CN3CCc4c(C(=O)Nc5cncc(C(F)(F)F)c5)csc4C3)cc12` [Example 150, 6-((3-methyl-1H-pyrazolo[3,4-b]pyridin-5-yl)methyl)-N-(5-(trifluoromethyl)pyridin-3-yl)-4,5,6,7-tetrahydrothieno[2,3-c]pyridine-3-carboxamide], the half-inhibitory concentration (IC50) on DDR2 [1] and at DDR1 [3] was below 25 nM throughout. Further, the inhibitory constant (Ki) at DDR2 [2] and at DDR1 [4] was below 25 nM throughout.
For the compound `O=C(Nc1cncc(C(F)(F)F)c1)c1csc2c1CCN(Cc1cnc3[nH]ncc3c1)C2` [Example 151, 6-(1H-pyrazolo[3,4-b]pyridin-5-ylmethyl)-N-[5-(trifluoromethyl)-3-pyridyl]-5,7-dihydro-4H-thieno[2,3-c]pyridine-3-carboxamide], the half-inhibitory concentration (IC50) at DDR2 [1] and at DDR1 [3] was below 25 nM throughout. The Ki at DDR2 [2] and at DDR1 [4] was below 25 nM in each case.
As for `O=C(Nc1cncc(C(F)(F)F)c1)c1csc2c1CCN(Cc1cnc3ccnn3c1)C2` [Example 152, 6-(pyrazolo[1,5-a]pyrimidin-6-ylmethyl)-N-(5-(trifluoromethyl)pyridin-3-yl)-4,5,6,7-tetrahydrothieno[2,3-c]pyridine-3-carboxamide], the IC50 at DDR2 [1] and against DDR1 [3] was below 25 nM in each case. Moreover, the Ki on DDR2 [2] and at DDR1 [4] was below 25 nM each time.
With `O=C(Nc1cncc(C(F)(F)F)c1)c1csc2c1CCN(Cc1cnc3cnccn13)C2` [Example 153, 6-(imidazo[1,2-a]pyrazin-3-ylmethyl)-N-(5-(trifluoromethyl)pyridin-3-yl)-4,5,6,7-tetrahydrothieno[2,3-c]pyridine-3-carboxamide], the half-maximal inhibitory concentration (IC50) at DDR2 [1] and against DDR1 [3] was below 25 nM throughout. Also, the Ki on DDR2 [2] and on DDR1 [4] was below 25 nM throughout.
For `CN(C)[C@@H]1CCN(Cc2cc(NC(=O)c3csc4c3CCN(Cc3cnc5[nH]ncc5c3)C4)cc(C(F)(F)F)c2)C1` [Example 158, (R)-6-((1H-pyrazolo[3,4-b]pyridin-5-yl)methyl)-N-(3-((3-(dimethylamino)pyrrolidin-1-yl)methyl)-5-(trifluoromethyl)phenyl)-4,5,6,7-tetrahydrothieno[2,3-c]pyridine-3-carboxamide], the results for the IC50 at DDR2 [1] and at DDR1 [3] were 25 to 50 nM and below 25 nM, respectively. In addition, the Ki on DDR2 [2] and at DDR1 [4] was below 25 nM throughout.
As for `CN1CCN(c2ccc3ncc(C(=O)N4CCc5c(C(=O)Nc6cncc(C(F)(F)F)c6)csc5C4)n3c2)CC1` [Example 165, 6-(6-(4-methylpiperazin-1-yl)imidazo[1,2-a]pyridine-3-carbonyl)-N-(5-(trifluoromethyl)pyridin-3-yl)-4,5,6,7-tetrahydrothieno[2,3-c]pyridine-3-carboxamide], the results for the concentration for half-maximal inhibition (IC50) at DDR2 [1] and at DDR1 [3] were 25 to 50 nM and below 25 nM, respectively. The Ki on DDR2 [2] and at DDR1 [4] was below 25 nM throughout.
